Measured values from BindingDB's records for doi:10.1021/acs.jmedchem.2c01601 (Sapienza University of Rome, 2023).

Key:
[1] = target: METTL3/METTL14 complex (Homo sapiens); assay: Competive inhibition of full length human METTL3/METTL14 expressed in Sf9 cells using single strand RNA 5'-AAGAACCGGACUAAGCU-3' and SAM as substrate incubated for 40 mins by HTRF assay
[2] = target: N6-adenosine-methyltransferase catalytic/non-catalytic subunit (Homo sapiens, UniProt Q9HCE5+Q86U44); assay: Inhibition of full-length His-tagged METTL3/full length FLAG-tagged METTL14 (unknown origin) expressed in baculovirus expression system using synthetic RNA 5'P-uacacucgaucuggacuaaagcugcuc-3' and SAM as substrate preincubated for 10 mins followed by substrate addition and measured after 60 mins by RF/MS analysis
Sequence of N6-adenosine-methyltransferase catalytic/non-catalytic subunit (Q9HCE5 whole entry): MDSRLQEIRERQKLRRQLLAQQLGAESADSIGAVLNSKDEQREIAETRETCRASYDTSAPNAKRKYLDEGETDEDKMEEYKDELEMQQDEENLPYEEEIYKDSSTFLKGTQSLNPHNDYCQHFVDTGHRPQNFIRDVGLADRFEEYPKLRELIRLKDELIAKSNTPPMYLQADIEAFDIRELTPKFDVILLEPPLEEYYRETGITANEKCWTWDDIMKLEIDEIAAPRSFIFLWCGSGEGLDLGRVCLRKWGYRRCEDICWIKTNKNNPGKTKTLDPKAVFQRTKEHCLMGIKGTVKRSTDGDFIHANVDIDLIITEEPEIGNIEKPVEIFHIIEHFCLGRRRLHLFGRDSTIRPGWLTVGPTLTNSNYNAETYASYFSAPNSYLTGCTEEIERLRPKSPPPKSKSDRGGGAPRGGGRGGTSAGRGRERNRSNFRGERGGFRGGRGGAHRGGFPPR
Sequence of N6-adenosine-methyltransferase catalytic/non-catalytic subunit (Q86U44 whole entry): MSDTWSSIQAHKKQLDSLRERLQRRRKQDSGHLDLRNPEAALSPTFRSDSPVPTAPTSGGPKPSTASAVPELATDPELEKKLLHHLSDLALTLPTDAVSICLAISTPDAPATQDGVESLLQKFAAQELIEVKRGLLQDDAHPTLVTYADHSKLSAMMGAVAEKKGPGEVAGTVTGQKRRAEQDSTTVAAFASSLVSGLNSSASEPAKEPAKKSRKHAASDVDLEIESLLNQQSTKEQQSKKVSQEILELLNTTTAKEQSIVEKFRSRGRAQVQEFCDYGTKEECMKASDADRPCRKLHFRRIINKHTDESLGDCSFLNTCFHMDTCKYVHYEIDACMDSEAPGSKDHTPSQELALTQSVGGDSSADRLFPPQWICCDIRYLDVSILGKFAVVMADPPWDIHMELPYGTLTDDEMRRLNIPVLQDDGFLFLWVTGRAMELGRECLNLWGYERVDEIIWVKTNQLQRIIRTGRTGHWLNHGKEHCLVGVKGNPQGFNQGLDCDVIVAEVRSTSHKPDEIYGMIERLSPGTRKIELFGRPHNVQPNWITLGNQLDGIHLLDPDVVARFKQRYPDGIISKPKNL

[3] = target: METTL3/METTL14 (Homo sapiens); assay: Inhibition of full-length His-tagged METTL3/full length FLAG-tagged METTL14 (unknown origin) expressed in baculovirus expression system using synthetic RNA 5'P-uacacucgaucuggacuaaagcugcuc-3' and SAM as substrate preincubated for 10 mins followed by substrate addition and measured after 60 mins by RF/MS analysis
METTL3/METTL14 complex = assay: Inhibition of METTL3/METTL14 (unknown origin)

Compound | IC50 [2] | IC50 [3] | other results
CN1CCC(NC(=O)[C@H]2O[C@@H](n3cnc4c(N)ncnc43)[C@H](O)[C@@H]2O)CC1 | – | – | IC50 [1]: 65000 nM
CNC1CCC(O)(Cn2cnc3c(N)ncnc32)C(O)C1 (stereo not drawn) | – | – | IC50 [1]: 98000 nM
CC1(C)CCN(Cc2ccc3nc(Cn4cc(-c5cc(Br)cc6[nH]ncc56)nn4)cn3c2)CC1 | 7.9 nM | – | –
COc1cc(-c2cn(Cc3cn4cc(CNCC5(OC)CCC5)ccc4n3)nn2)c2cn[nH]c2c1 | 6.1 nM | – | –
COc1ccc2[nH]ncc2c1-c1cn(Cc2cn3cc(CNCC4CCC4)ccc3n2)nn1 | 6.1 nM | – | –
CC1=NN(c2ccc(C)c(C)c2)C(=O)/C1=N\Nc1cccc(-c2cccc(C(=O)O)c2)c1 | – | – | IC50 (METTL3/METTL14 complex): 15300 nM
COc1cc(-c2cn(Cc3cn4cc(CNCC56CC(F)(C5)C6)ccc4n3)nn2)c2cncn2c1 [({3-fluorobicyclo[1.1.1]pentan-1-yl}methyl)({2-[(4-{6-methoxyimidazo[1,5-a]pyridin-8-yl}-1H-1,2,3-triazol-1-yl)methyl]imidazo [1,2-a]pyridin-6-yl}methyl)amine] | – | 6.1 nM | –
COc1cc(-c2cn(Cc3cn4cc(CNCC5CCC5)ccc4n3)nn2)c2cncn2c1 [US20230391770, Example 22] | – | 6.1 nM | –

The next lines start with results.

IC50 [2] | IC50 [3] | Compound | other results
– | 6.1 nM | O=C(NCc1cn2cc(CNCC34CC(F)(C3)C4)ccc2n1)c1cc(=O)n2ccccc2n1 | –
6.1 nM | – | Nc1ncnc2c1c(Br)cn2[C@@H]1C[C@H](c2ccc3cc(CN4CCC5(CCC5)C4)[nH]c3c2)[C@@H](O)[C@H]1O [(1R,2S,3R,5R)-3-{4-amino-5-bromo-7H-pyrrolo[2,3-d]pyrimidin-7-yl}-5-[2-({6-azaspiro[3.4]octan-] | –
6.1 nM | – | Nc1ncnc2c1c(Cl)cn2[C@@H]1C[C@H](c2ccc3cc(CNCC45CC(F)(C4)C5)[nH]c3c2)[C@@H](O)[C@H]1O [(1R,2S,3R,5R)-3-{4-amino-5-chloro-7H-pyrrolo[2,3-d]pyrimidin-7-yl}-5-(2-{[({3-fluorobicyclo[1.1.1]pentan-1-] | –
6.2 nM | – | Nc1ncnc2c1ccn2[C@@H]1C[C@H](c2ccc3cc(CN4CCC5(CCC5)C4)[nH]c3c2)[C@@H](O)[C@H]1O [(1R,2S,3R,5R)-3-{4-amino-7H-pyrrolo[2,3-d]pyrimidin-7-yl}-5-[2-({6-azaspiro[3.4]octan-] | –
– | 6.1 nM | COc1cc(-c2cn(Cc3cn4cc(CNCC56CC(C5)C6)ccc4n3)nn2)c2cncn2c1 [({bicyclo[1.1.1]pentan-1-yl}methyl)({2-[(4-{6-methoxyimidazo[1,5-a]pyridin-8-yl}-1H-1,2,3-triazol-1-yl)methyl]imidazo [1,2-a]pyridin-6-yl}methyl)amine] | –
